Experimental data: patent US6423823B1, “Organic chemical compounds and method for producing the same” (Bayer Aktiengesellschaft, priority 1997, dated 2002)
Numbered stars: 1 amine (or outer) side, 2 acyl side, 3 side chain; on linkers, the order of the positions; unused ones are H or OH. Square brackets hold non-standard residues; d marks the D form. Peptide text beside a SMILES is read from it. ξ: configuration not given here. X1 = CC(OC(=O)CC(C)(C)O)C(C)C(C(=O)[*:2])N(C)[*:1]; X4 = CC(=O)OC(C)C(C)C(C(=O)[*:2])N(C)[*:1]; X3 = O=C(C1CC2(O)c3ccccc3NC2N1[*:1])[*:2]; ξNMeVal(3-OH) = CNC(C(=O)O)C(C)(C)O; NMeξGly(OAc) = CNC(OC(C)=O)C(=O)O; NMeI = CC[CH](C)[CH](NC)C(=O)O; X2 = CN(C(O)C(=O)[*:2])[*:1]; NMeV = CN[CH](C(=O)O)C(C)C; Sar = CNCC(=O)O

Experiments:
Spodoptera frugiperda = experiment: Insecticidal maize leaf test; format: in vivo; settings: lethal dose for 50% of larvae, third larval stage, after 72 hours
Experimental: Test Insect: Spodoptera frugiperda
Test method: A rectangle (1.5×2 cm) cut from maize leaves (8-10 day-old plant, variety Golda) is placed in a Petri dish (diameter 5.5 cm, Greiner). The test substance, as a methanolic solution, is applied to the maize leaf and, after the solvent has evaporated, a filter disc (diameter 13 mm, Schleicher und Schüll) saturated with water and a larva of the third larval stage are added. The larva is placed next to the piece of leaf. The experiment is incubated at 24° C. After 48 hours, untreated maize (1.5×2 cm) is added. The feed behaviour and the state of the larvae are evaluated after 24, 48 and 72 hours. Per test concentration, 4 experiments and 3 repetitions are carried out. The insecticidal effect is stated as LD50 (lethal dose for 50% of larvae) after 72 hours.

Meloidogyne incognita [1] = experiment: Effect on nematodes in the greenhouse (test crop: cucumbers); format: in vivo; settings: for Efficacy in %: cucumber plants, after 14 days, 100% = no galls formed; for Number of galls/plant: poured onto cucumber plants, evaluation after 14 days
Experimental: (§1) Test nematode: Meloidogyne incognita
Test method: In each case two cucumber plants (variety Bella F1) are grown in a soil-leaf mixture in pots of the dimensions 7×7×6 cm. The test substances are, in the appropriate concentrations, dissolved in methanol and then diluted in water and then poured onto the cucumber plants, which are about 14 days old. Per drip, 10 ml of solution are poured on. 3 hours after the treatment, about 500 nematodes are pipetted as a suspension onto each pot. The pots are incubated in a greenhouse at a day temperature of about 26° C. and a night temperature of 20° C. After 14 days, evaluation is carried out by washing out the roots and determining the galls formed per plant.
The efficacy of the test substance is 100% if no galls have been formed, and it is 0% if the same number of galls have been formed as in the control.

Meloidogyne incognita [2] = experiment: Nematicidal activity on phytopathogenic nematodes in 24-well tissue culture plates; settings: lethal dose for 90% of the nematode population, second larval stage, after 16 hours
Experimental: as §1
Test method: The test substances are dissolved in methanol and pipetted into the wells of tissue culture plates (24-well tray). The solvent is evaporated, and 400 μl of nematode suspension are then added to each well of the tissue culture plate. The number of nematodes is 100 larvae of the second larval stage/400 μl . To promote the solubility of the samples in aqueous medium, the plate is shaken at 100 rpm for 15 minutes, and a first microscopic control is then carried out. After 16 hours, the percentage of dead larvae is determined and stated as LD90 (lethal dose for 90% of the nematode population).

Heterakis spumosa = experiment: In vivo mouse model, intestinal nematode; settings: dosage of 50 mg/kg
Experimental: In the in vivo mouse model, omphalotin B has full activity against the intestinal nematode Heterakis spumosa at a dosage of 50 mg/kg. The test is described in the above publication.

Trichinella spiralis = experiment: In vitro test against Trichinella spiralis; settings: concentration of 1 μg/ml
Experimental: The test was carried out according to the test description in the publication Plant et al. (1996) Pesticide Science 48: 351-358.

Phaedon cochleariae = experiment: Insecticidal leaf disc test (savoy cabbage); format: in vivo; settings: lethal dose for 100% of the larvae tested, third larval stage, after 96 hours
Experimental: Test insect: Phaedon cochleariae
(§2) Test method: Using a cork borer, 2 discs having a diameter of 10 mm are punched out of savoy cabbage leaves and placed in a Petri dish (diameter 5.5 cm, Greiner). The test substance is pipetted onto the leaf discs and, after the solvent has evaporated, a filter disc (diameter 13 mm, Schleicher und Schull) saturated in water and 2 freshly hatched larvae of the third larval stage are added. The larvae are placed next to the leaf discs. The experiment is incubated at 24° C. After 48 hours, an untreated savoy cabbage disc (10 mm Ø) is added. The feed behaviour and the state of the larvae are evaluated after 24, 48, 72 and 96 hours. Per test concentration, 2 experiments and 3 repetitions are carried out. The insecticidal effect is stated as LD100 (lethal dose for 100% of the larvae tested) after 96 hours.

Plutella xylostella = experiment: Insecticidal leaf disc test (savoy cabbage); format: in vivo; settings: lethal dose for 100% of the larvae tested, third larval stage, after 72 hours
Experimental: Test insect: Plutella xylostella
as §2, with “Schüll)” for “Schull)”, “48 and” for “48,”, “72” for “72 and 96”, “72” for “96”

CCC(C)C1NC(=O)C(C(C)C)N(C)C(=O)C2CC3(O)c4ccccc4NC3N2C(=O)CN(C)C(=O)C(C(C)CC)N(C)C(=O)C(C(C)C)NC(=O)C(OC(C)=O)N(C)C(=O)C(C(C)C(C)OC(=O)CC(C)(C)O)N(C)C(=O)C(C(C)(C)O)N(C)C(=O)CN(C)C(=O)C(C(C)C)N(C)C(=O)C(C(C)C)N(C)C1=O (centres unmarked) [Omphalotin C] (cyclo([Sar][ξNMeVal(3-OH)][X1][NMeξGly(OAc)]V[NMeI][Sar][X3][NMeV]I[NMeV][NMeV]); configuration not given here)
Insecticidal activity against Spodoptera frugiperda LD50 (Spodoptera frugiperda): 100 μg/maize leaf | Efficacy in % (Meloidogyne incognita [1]; 2 ppm): 99% | Number of galls/plant (Meloidogyne incognita [1]; 2 ppm): 1 | Efficacy in % (Meloidogyne incognita [1]; 5 ppm): 100% | Number of galls/plant (Meloidogyne incognita [1]; 5 ppm): 0 | Nematicidal activity against Meloidogyne incognita LD90 (Meloidogyne incognita [2]): 1 µg/mL

CCC(C)C1NC(=O)C(C(C)C)N(C)C(=O)C2CC3(O)c4ccccc4NC3N2C(=O)CN(C)C(=O)C(C(C)CC)N(C)C(=O)C(C(C)C)NC(=O)C(O)N(C)C(=O)C(C(C)C(C)OC(=O)CC(C)(C)O)N(C)C(=O)C(C(C)(C)O)N(C)C(=O)CN(C)C(=O)C(C(C)C)N(C)C(=O)C(C(C)C)N(C)C1=O (centres unmarked) [Omphalotin B] (cyclo([Sar][ξNMeVal(3-OH)][X1][X2]V[NMeI][Sar][X3][NMeV]I[NMeV][NMeV]); configuration not given here)
Efficacy in % (Meloidogyne incognita [1]; 2 ppm): 99% | Number of galls/plant (Meloidogyne incognita [1]; 2 ppm): 1 | Efficacy in % (Meloidogyne incognita [1]; 5 ppm): 100% | Number of galls/plant (Meloidogyne incognita [1]; 5 ppm): 0 | Nematicidal activity against Meloidogyne incognita LD90 (Meloidogyne incognita [2]): 2.5 µg/mL | Activity against the intestinal nematode Heterakis spumosa (Heterakis spumosa): full activity | Effect against Trichinella spiralis in vitro (Trichinella spiralis): full effect

CCC(C)C1NC(=O)C(C(C)C)N(C)C(=O)C2CC3(O)c4ccccc4NC3N2C(=O)CN(C)C(=O)C(C(C)CC)N(C)C(=O)C(C(C)C)NC(=O)C(OC(C)=O)N(C)C(=O)C(C(C)C(C)OC(C)=O)N(C)C(=O)C(C(C)(C)O)N(C)C(=O)CN(C)C(=O)C(C(C)C)N(C)C(=O)C(C(C)C)N(C)C1=O (centres unmarked) [Omphalotin D] (cyclo([Sar][ξNMeVal(3-OH)][X4][NMeξGly(OAc)]V[NMeI][Sar][X3][NMeV]I[NMeV][NMeV]); configuration not given here)
Insecticidal activity against Spodoptera frugiperda LD50 (Spodoptera frugiperda): 80 μg/maize leaf | Insecticidal activity against Phaedon cochleariae LD100 (Phaedon cochleariae): 100 μg/leaf disc | Nematicidal activity against Meloidogyne incognita LD90 (Meloidogyne incognita [2]): 4 µg/mL | Insecticidal activity against Plutella xylostella LD100 (Plutella xylostella): 100 μg/leaf disc
